From patent US10287301B2 (Achillion Pharmaceuticals, Inc., priority 2015, dated 2019)

target: Human Factor D (Homo sapiens (Human), UniProt P00746); experiment: Human Factor D Assay; assay type: biochemical; details: Table 3; Human Factor D 80 nM, substrate Z-L-Lys-SBzl; read-out: IC50 (Stars)
Outline: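 IC50 values derive from nonlinear regression of Factor D reaction rates against compound concentration. The enzyme, purified from human serum, is used at 80 nM final with a 5 min room-temperature compound preincubation in 50 mM Tris, 1M NaCl, pH 7.5, before 100 μM Z-L-Lys-SBzl plus 100 μM DTNB are added.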

Chain of Human Factor D (P00746 26-253): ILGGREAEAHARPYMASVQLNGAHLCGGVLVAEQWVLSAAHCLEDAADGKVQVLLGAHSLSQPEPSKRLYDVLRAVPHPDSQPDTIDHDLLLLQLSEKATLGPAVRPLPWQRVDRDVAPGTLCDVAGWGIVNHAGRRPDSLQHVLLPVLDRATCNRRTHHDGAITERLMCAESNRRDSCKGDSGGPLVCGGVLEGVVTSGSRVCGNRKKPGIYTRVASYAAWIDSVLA

Compound	IC50
CC(=O)c1nn(CC(=O)N2C[C@H](F)C[C@H]2C(=O)Nc2cc(F)ncc2Br)c2ccc(-c3cnc(C)nc3)cc12 [Compound 438, (2S,4R)-1-(2-(3-Acetyl-5-(2-methylpyrimidin-5-yl)-1H-indazol-1-yl)acetyl)-N-(5-bromo-2-fluoropyridin-4-yl)-4-fluoropyrrolidine-2-carboxamide]	< 1000 nM
CC(=O)c1nn(CC(=O)N2C[C@H](F)C[C@H]2C(=O)Nc2nn(C)c3ncccc23)c2ccc(-c3cnc(C)nc3)cc12 [Compound 439, (2S,4R)-1-(2-(3-Acetyl-5-(2-methylpyrimidin-5-yl)-1H-indazol-1-yl)acetyl)-4-fluoro-N-(1-methyl-1H-pyrazolo[3,4-b]pyridin-3-yl)pyrrolidine-2-carboxamide]	< 1000 nM
Cc1ncc(-c2ccc3c(c2)c(C(=O)CO)nn3CC(=O)N2C[C@H](F)C[C@H]2C(=O)Nc2cccc(Br)n2)cn1 [Compound 440, (2S,4R)—N-(6-bromopyridin-2-yl)-4-fluoro-1-(2-(3-(2-hydroxyacetyl)-5-(2-methylpyrimidin-5-yl)-1H-indazol-1-yl)acetyl)pyrrolidine-2-carboxamide]	< 1000 nM
CC(=O)c1cn(CC(=O)N2C[C@H](F)C[C@H]2C(=O)NCc2ccccc2)c2ccc(-c3cnc(C)nc3)cc12 [Compound 442, (2S,4R)-1-(2-(3-Acetyl-5-(2-methylpyrimidin-5-yl)-1H-indol-1-yl)acetyl)-N-benzyl-4-fluoropyrrolidine-2-carboxamide]	< 1000 nM
CC(=O)c1cn(CC(=O)N2C[C@H](F)C[C@H]2C(=O)NCCc2ccccc2)c2ccc(-c3cnc(C)nc3)cc12 [Compound 443, (2S,4R)-1-(2-(3-Acetyl-5-(2-methylpyrimidin-5-yl)-1H-indol-1-yl)acetyl)-4-fluoro-N-phenethylpyrrolidine-2-carboxamide]	< 1000 nM
CC(=O)c1cn(CC(=O)N2C[C@H](F)C[C@H]2C(=O)NCCCc2ccccc2)c2ccc(-c3cnc(C)nc3)cc12 [Compound 444, (2S,4R)-1-(2-(3-Acetyl-5-(2-methylpyrimidin-5-yl)-1H-indol-1-yl)acetyl)-4-fluoro-N-(3-phenylpropyl)pyrrolidine-2-carboxamide]	< 1000 nM
COc1ncc(-c2ccc3c(c2)c(C(C)=O)nn3CC(=O)N2[C@@H]3C[C@@H]3C[C@H]2C(=O)Nc2nc(Br)ccc2C)cn1 [Compound 445, (1R,3S,5R)-2-(2-(3-Acetyl-5-(2-methoxypyrimidin-5-yl)-1H-indazol-1-yl)acetyl)-N-(6-bromo-3-methylpyridin-2-yl)-2-azabicyclo[3.1.0]hexane-3-carboxamide]	< 1000 nM
CC(=O)c1nn(CC(=O)N2[C@@H]3C[C@@H]3C[C@H]2C(=O)Nc2nc(Br)ccc2C)c2ccc(-c3cnc(N)nc3)cc12 [Compound 446, (1R,3S,5R)-2-(2-(3-Acetyl-5-(2-aminopyrimidin-5-yl)-1H-indazol-1-yl)acetyl)-N-(6-bromo-3-methylpyridin-2-yl)-2-azabicyclo[3.1.0]hexane-3-carboxamide]	< 1000 nM
CC(=O)c1nn(CC(=O)N2[C@@H]3C[C@@H]3C[C@H]2C(=O)Nc2ccc(F)c(Br)n2)c2ccc(-c3cnc(C)nc3)cc12 [Compound 447, (1R,3S,5R)-2-(2-(3-Acetyl-5-(2-methylpyrimidin-5-yl)-1H-indazol-1-yl)acetyl)-N-(6-bromo-5-fluoropyridin-2-yl)-2-azabicyclo[3.1.0]hexane-3-carboxamide]	< 1000 nM
CC(=O)c1nn(CC(=O)N2C[C@H](F)C[C@H]2C(=O)Nc2nc(Br)cs2)c2ccc(-c3cnc(C)nc3)cc12 [Compound 448, (2S,4R)-1-(2-(3-Acetyl-5-(2-methylpyrimidin-5-yl)-1H-indazol-1-yl)acetyl)-N-(4-bromothiazol-2-yl)-4-fluoropyrrolidine-2-carboxamide]	< 1000 nM
CC(=O)c1nn(CC(=O)N2C[C@H](F)C[C@H]2C(=O)Nc2nc(Br)c(C)s2)c2ccc(-c3cnc(C)nc3)cc12 [Compound 449, (2S,4R)-1-(2-(3-Acetyl-5-(2-methylpyrimidin-5-yl)-1H-indazol-1-yl)acetyl)-N-(4-bromo-5-methylthiazol-2-yl)-4-fluoropyrrolidine-2-carboxamide]	< 1000 nM
COc1ncc(-c2ccc3c(c2)c(C(C)=O)nn3CC(=O)N2C[C@H](F)C[C@H]2C(=O)Nc2ccc(F)c(Br)n2)cn1 [Compound 450, (2S,4R)-1-(2-(3-Acetyl-5-(2-methoxypyrimidin-5-yl)-1H-indazol-1-yl)acetyl)-N-(6-bromo-5-fluoropyridin-2-yl)-4-fluoropyrrolidine-2-carboxamide]	< 1000 nM
CC(=O)c1nn(CC(=O)N2C[C@H](F)C[C@H]2C(=O)Nc2ccc(F)c(Br)n2)c2ccc(-c3cnc(N)nc3)cc12 [Compound 451, (2S,4R)-1-(2-(3-Acetyl-5-(2-aminopyrimidin-5-yl)-1H-indazol-1-yl)acetyl)-N-(6-bromo-5-fluoropyridin-2-yl)-4-fluoropyrrolidine-2-carboxamide]	< 1000 nM
CC(=O)O[C@H]1[C@@H](C(=O)Nc2cccc(Br)n2)N(C(=O)Cn2nc(C(C)=O)c3cc(-c4cnc(C)nc4)ccc32)C[C@@H]1F [Compound 452, (2S,3S,4S)-1-(2-(3-Acetyl-5-(2-methylpyrimidin-5-yl)-1H-indazol-1 yl)acetyl)-2-((6-bromopyridin-2-yl)carbamoyl)-4-fluoropyrrolidin-3-yl acetate]	< 1000 nM
CC(=O)c1nn(CC(=O)N2C[C@H](F)C[C@H]2C(=O)Nc2nc(-c3ccccc3Cl)cs2)c2ccc(-c3cnc(C)nc3)cc12 [Compound 453, (2S,4R)-1-(2-(3-Acetyl-5-(2-methylpyrimidin-5-yl)-1H-indazol-1-yl)acetyl)-N-(4-(2-chlorophenyl)thiazol-2-yl)-4-fluoropyrrolidine-2-carboxamide]	> 10000 nM
CC(=O)c1nn(CC(=O)N2C3CC3(CN)C[C@H]2C(=O)Nc2cccc(Br)n2)c2ccc(-c3cnc(C)nc3)cc12 (stereo partly drawn) [Compound 454, (3S)-2-(2-(3-Acetyl-5-(2-methylpyrimidin-5-yl)-1H-indazol-1-yl)acetyl)-5-(aminomethyl)-N-(6-bromopyridin-2-yl)-2-azabicyclo[3.1.0]hexane-3-carboxamide]	< 1000 nM
Cc1cccc(C[C@H](O)[C@@H]2C[C@@H](F)CN2C(=O)Cn2cc(C(N)=O)c3cc(-c4cnc(C)nc4)ccc32)n1 [Compound 455, 1-(2-((2S,4R)-4-fluoro-2-((S)-1-hydroxy-2-(6-methylpyridin-2-yl)ethyl)pyrrolidin-1-yl)-2-oxoethyl)-5-(2-methylpyrimidin-5-yl)-1H-indole-3-carboxamide]	> 10000 nM
Cc1ncc(-c2ccc3c(c2)c(C(C)F)nn3CC(=O)N2C[C@H](F)C[C@H]2C(=O)Nc2cccc(Br)n2)cn1 (stereo partly drawn) [Compound 456, (2S,4R)—N-(6-Bromopyridin-2-yl)-4-fluoro-1-(2-(3-(1-fluoroethyl)-5-(2-methylpyrimidin-5-yl)-1H-indazol-1-yl)acetyl)pyrrolidine-2-carboxamide]	< 1000 nM
COc1ncc(-c2ccc3c(c2)c(C(C)=O)nn3CC(=O)N2[C@@H]3C[C@@H]3C[C@H]2C(=O)Nc2ccc(F)c(Br)n2)cn1 [Compound 457, (1R,3S,5R)-2-(2-(3-Acetyl-5-(2-methoxypyrimidin-5-yl)-1H-indazol-1-yl)acetyl)-N-(6-bromo-5-fluoropyridin-2-yl)-2-azabicyclo[3.1.0]hexane-3-carboxamide]	< 1000 nM
CC(=O)c1nn(CC(=O)N2[C@@H]3C[C@@H]3C[C@H]2C(=O)Nc2ccc(F)c(Br)n2)c2ccc(-c3cnc(N)nc3)cc12 [Compound 458, (1R,3S,5R)-2-(2-(3-Acetyl-5-(2-aminopyrimidin-5-yl)-1H-indazol-1-yl)acetyl)-N-(6-bromo-5-fluoropyridin-2-yl)-2-azabicyclo[3.1.0]hexane-3-carboxamide]	< 1000 nM
CC(=O)c1nn(CC(=O)N2C[C@H](F)C[C@H]2C(=O)NCC2CC2(Cl)Cl)c2ccc(-c3cnc(C)nc3)cc12 (stereo partly drawn) [Compound 459, (2S,4R)-1-(2-(3-acetyl-5-(2-methylpyrimidin-5-yl)-1H-indazol-1-yl)acetyl)-N-((2,2-dichlorocyclopropyl)methyl)-4-fluoropyrrolidine-2-carboxamide]	< 1000 nM
CC(=O)c1nn(CC(=O)N2C[C@H](F)C[C@H]2C(=O)NC2C[C@H]2c2ccccc2Cl)c2ccc(-c3cnc(C)nc3)cc12 (stereo partly drawn) [Compound 460, (2S,4R)-1-(2-(3-acetyl-5-(2-methylpyrimidin-5-yl)-1H-indazol-1-yl)acetyl)-N-((2S)-2-(2-chlorophenyl)cyclopropyl)-4-fluoropyrrolidine-2-carboxamide]	< 1000 nM
CC(=O)c1cn(CC(=O)N2C[C@H](F)C[C@H]2C(=O)NCCCCc2ccccc2)c2ccc(-c3cnc(C)nc3)cc12 [Compound 461, (2S,4R)-1-(2-(3-Acetyl-5-(2-methylpyrimidin-5-yl)-1H-indol-1-yl)acetyl)-4-fluoro-N-(4-phenylbutyl)pyrrolidine-2-carboxamide]	< 1000 nM
CC(=O)c1nn(CC(=O)N2CC3CC2(C(=O)Nc2cccc(Br)n2)C3)c2ccc(-c3cnc(C)nc3)cc12 [Compound 462, 2-(2-(3-acetyl-5-(2-Methylpyrimidin-5-yl)-1H-indazol-1-yl)acetyl)-N-(6-bromopyridin-2-yl)-2-azabicyclo[2.1.1]hexane-1-carboxamide]	< 1000 nM
CC(=O)c1nn(CC(=O)N2C[C@H](F)C[C@H]2C(=O)NC2CCCC(C)(C)C2)c2ccc(-c3cnc(C)nc3)cc12 (stereo partly drawn) [Compound 464, (2S,4R)-1-(2-(3-acetyl-5-(2-methylpyrimidin-5-yl)-1H-indazol-1-yl)acetyl)-N-(3,3-dimethylcyclohexyl)-4-fluoropyrrolidine-2-carboxamide]	< 1000 nM
CC(=O)c1nn(CC(=O)N2C[C@H](F)C[C@H]2C(=O)Nc2cccc(Br)n2)c2ccc(-c3cnc(C)cn3)cc12 [Compound 465, (2S,4R)-1-(2-(3-Acetyl-5-(5-methylpyrazin-2-yl)-1H-indazol-1-yl)acetyl)-N-(6-bromopyridin-2-yl)-4-fluoropyrrolidine-2-carboxamide]	< 1000 nM
